Reference: article PMC12195707, “Evaluation of Antitumoral Activity in a 3D Cell Model of a Src Inhibitor Prodrug for Glioblastoma Treatment” (Pharmaceutics, 2025)
“And” between values parts separate entries of the source, which are not always exact repeats. Equal values may be shown once.

Legend:
[1] = Stability/release in human plasma; details: for Stability (% unmodified compound): 37 °C; for half-life: human, pH 7.4
[2] = system: U251 spheroids; assay: Diameter of U251 spheroids in bioprinted scaffold; type: cell-based, human; details: 10 µM, 72 h, FBS-free DMEM
Protocol: (§1) A solution of 2% alginate and 8% gelatin (bio-ink) made up the hydrogel utilized for bioprinting. After 15 min of UV light exposure, the powders were dissolved in sterile DPBS in a magnetic stirrer set at 50 °C with laminar flow. After being made, bioink was put in sterile syringes and kept at 4 °C until it was needed. Bioink had been equilibrated at 37 °C prior to the bioprinting process. After that, 2.7 mL of bioink was added to 20 × 10^6 cells that had been resuspended in 300 µL of growth media. Lastly, a disposable cartridge containing a cell/hydrogel suspension was equilibrated in a temperature-controlled printhead for 30 min at 29 °C. The BIO-X bioprinter (Cellink, Gothenburg, Sweden) was used to print in a 12-well plate at a speed of 5 mm/s and a dispensing pressure of 50 kPa, while the temperature was adjusted to 18 °C. Before adding culture media, three-dimensional constructs were crosslinked using CaCl2 for ten minutes and BaCl2 for three minutes. After 8 days, 3D structures, after evaluating cell viability, were treated for 72 h with SI306 and SI306-PD2 at selected concentrations and in different conditions: in complete DMEM high-glucose growth medium and DMEM-high glucose growth medium without FBS (w/o). Fiji ImageJ software (version 2.16.0/1.54p, https://imagej.net/software/fiji/downloads, accessed on 20 May 2025) was used to perform measurements of 3D models’ diameters on images acquired using phase contrast microscopy. A hemocytometer was used to set a scale for normalized measures and to convert real optic distance in pixels. At least five different optical fields were acquired, and the diameter was calculated for at least 100 different cell aggregates in each experimental point.

[3] = system: U87MG xenograft; parameters: method as in PMID 28650650; details: nude mice, in combination with radiotherapy; cited from earlier work
[4] = biological target: Src; parameters: method as in PMID 28650650; details: cited from earlier work
[5] = system: Src; assay: Western blot of Src activation (pSrc/Src) in bioprinted U251 cells; type: cell-based, human; details: bioprinted U251, 24 h, FBS-free DMEM; for Active form of Src, pSrc (Tyr416), vs. control: 1 or 10 µM, Western blot
Protocol: as §1
Cells were subjected to total protein extraction using a ready-to-use cell lysis buffer (Euroclone, Milan, Italy), supplemented by a Protease/Phosphatase Inhibitor Cocktail (Euroclone), diluted 1:100. Cell lysis was further facilitated by three cycles of sonication in an ultrasonic bath (JSP, Los Angeles, CA, USA). […]

[6] = system: U87 GBM cells; parameters: method as in PMID 12564978; details: cited from earlier work
[7] = system: CAS-1 GBM cells; parameters: method as in PMID 12564978; details: CAS-1 cells; cited from earlier work

Row | SMILES | Stability (% unmodified compound) ([1]; time 0 h) | Stability (% unmodified compound) ([1]; time 0.083 h) | Stability (% unmodified compound) ([1]; time 0.25 h) | Stability (% unmodified compound) ([1]; time 0.5 h) | Stability (% unmodified compound) ([1]; time 1 h) | Stability (% unmodified compound) ([1]; time 2 h) | Stability (% unmodified compound) ([1]; time 4 h) | Stability (% unmodified compound) ([1]; time 6 h) | Stability (% unmodified compound) ([1]; time 24 h) | half-life [1] | Mean diameter of U251 spheroids vs. control [2] | U87MG xenograft growth [3] | Ki [4] | Active form of Src, pSrc (Tyr416), vs. control [5] | Activity in GBM cells [6] | Spheroid diameter vs. SI306-treated cells [2] | pSrc/Src ratio normalized to control, prodrug vs. SI306 ([5]; 10 µM, densitometric analysis) | Activity in GBM cells [7]
1 | ClC(Cn1ncc2c(Nc3cccc(Br)c3)nc(SCCN3CCOCC3)nc21)c1ccccc1 (stereo not shown) [SI306, N-(3-bromophenyl)-1-(2-chloro-2-phenylethyl)-6-((2-morpholinoethyl)thio)-1H-pyrazolo[3,4-d]pyrimidin-4-amine] | 100.50 ± 2.32% | 96.64 ± 2.74% | 97.99 ± 2.48% | 98.95 ± 1.18% | 99.48 ± 1.70% | 99.92 ± 0.61% | 95.72 ± 0.76% | 95.54 ± 1.74% | 93.12% and 93.12 ± 1.70 % | > 100 h | significant difference in the mean diameter of the treated U251 spheroids with respect to the control | strongly arrested U87MG xenograft growth | 130 nM | evident reduction in the active form of Src, starting from 1 µM |  |  |  | 
2 | O=C(OCCOCCO)N(c1cccc(Br)c1)c1nc(SCCN2CCOCC2)nc2c1cnn2CC(Cl)c1ccccc1 (stereo not shown) [SI306-PD2, 2-(2-Hydroxyethoxy)ethyl (3-Bromophenyl)(1-(2-chloro-2-phenylethyl)-6-((2-morpholinoethyl)thio)-1H-pyrazolo[3,4-d]pyrimidin-4-yl)carbamate] | 101.03 ± 1.58% | 90.12 ± 2.45% | 89.41 ± 2.37% | 89.57 ± 1.82% |  | 88.55 ± 1.18% | 71.86 ± 1.03% | 70.80 ± 3.25% |  | 10.9 h | significant difference in the mean diameter of the treated U251 spheroids with respect to the control |  |  | evident reduction in the active form of Src, starting from 1 µM | active | significant reduction in spheroid diameter with respect to SI306-treated cells | higher ability of the prodrug to inhibit the generation of phosphorylated Src than the SI306 compound | active
